The text below walks through data of patent US20220213436A1, “BRAIN ORGANOID MACHINE INTERFACE” (The Regents of the University of California, priority 2019, published 2022).

Molecules are shown by their SMILES.

For one assay, the system named is cortical organoids. The assay can be described thus: Pharmacological manipulation of cortical organoid network activity recorded by multi-electrode array (MEA). The assay is classed as cell-based, human.
Conditions: not given
Consider `NC1=N[C@H](O)[C@H]2[C@H]3O[C@]4(O)O[C@@H]([C@@H](O)[C@@]2(N1)[C@@H]4O)[C@]3(O)CO` [tetrodotoxin], for which the neuronal electrical activity entry is given as “blocked”.

The same assay, now with this note: 8-month-old organoids; recording 15 min after addition; 20 μM AP5, 20 μM CNQX, 50 μM muscimol, 25 μM baclofen, 10 μM bicuculline.
In the case of `N#Cc1cc2[nH]c(=O)c(=O)[nH]c2cc1[N+](=O)[O-]` [CNQX], the “number of bursts / burst activity” value is “significantly reducing” and the “synchronous activity / synchrony indexes” value is “extinction”. For the compound `NCC(CC(=O)O)c1ccc(Cl)cc1` (stereo not drawn) [baclofen], the “number of bursts / burst activity” value is on record as “significantly reducing” and the “synchronous activity / synchrony indexes” value is “extinction”. Taken in the same sequence, the figures for `NCc1cc(=O)[nH]o1` [muscimol] were “significantly reducing” and “extinction”.

Regarding `NC(CCCP(=O)(O)O)C(=O)O` (stereo not drawn) [AP5], the “number of bursts / burst activity” value is listed as “significantly reducing” and the “synchronous activity / synchrony indexes” value was “extinction”.
